Assays:
[1] = Human microsomal stability assay; assay type: in vitro ADME; settings: human liver microsomes 0.5 mg/mL, 37° C., pH 7.4, NADPH regenerating system, 0-30 minutes
Method in brief: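 Human liver microsomes (0.5 mg/mL) with […] compound in 100 mM potassium phosphate, pH 7.4, 37° C; reaction started with NADPH regenerating system after 10 min preincubation. Parent remaining at 0–30 min quantified by LC-MS/MS; clearance binned low (<7.0), medium (7.0-16.2) or high (16.2-23.2) mL/min/kg.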

[2] = molecular target: T1, human TLR7 (Homo sapiens, UniProt Q9NYK1); experiment: HEK293-Blue-hTLR-7 cells assay; assay type: cell-based; settings: HEK293-Blue-hTLR7 cells, R848 stimulation, 20 hrs, SEAP reporter; read-out: HEK/hTLR7 IC50
T1 sequence (Q9NYK1 27-1049): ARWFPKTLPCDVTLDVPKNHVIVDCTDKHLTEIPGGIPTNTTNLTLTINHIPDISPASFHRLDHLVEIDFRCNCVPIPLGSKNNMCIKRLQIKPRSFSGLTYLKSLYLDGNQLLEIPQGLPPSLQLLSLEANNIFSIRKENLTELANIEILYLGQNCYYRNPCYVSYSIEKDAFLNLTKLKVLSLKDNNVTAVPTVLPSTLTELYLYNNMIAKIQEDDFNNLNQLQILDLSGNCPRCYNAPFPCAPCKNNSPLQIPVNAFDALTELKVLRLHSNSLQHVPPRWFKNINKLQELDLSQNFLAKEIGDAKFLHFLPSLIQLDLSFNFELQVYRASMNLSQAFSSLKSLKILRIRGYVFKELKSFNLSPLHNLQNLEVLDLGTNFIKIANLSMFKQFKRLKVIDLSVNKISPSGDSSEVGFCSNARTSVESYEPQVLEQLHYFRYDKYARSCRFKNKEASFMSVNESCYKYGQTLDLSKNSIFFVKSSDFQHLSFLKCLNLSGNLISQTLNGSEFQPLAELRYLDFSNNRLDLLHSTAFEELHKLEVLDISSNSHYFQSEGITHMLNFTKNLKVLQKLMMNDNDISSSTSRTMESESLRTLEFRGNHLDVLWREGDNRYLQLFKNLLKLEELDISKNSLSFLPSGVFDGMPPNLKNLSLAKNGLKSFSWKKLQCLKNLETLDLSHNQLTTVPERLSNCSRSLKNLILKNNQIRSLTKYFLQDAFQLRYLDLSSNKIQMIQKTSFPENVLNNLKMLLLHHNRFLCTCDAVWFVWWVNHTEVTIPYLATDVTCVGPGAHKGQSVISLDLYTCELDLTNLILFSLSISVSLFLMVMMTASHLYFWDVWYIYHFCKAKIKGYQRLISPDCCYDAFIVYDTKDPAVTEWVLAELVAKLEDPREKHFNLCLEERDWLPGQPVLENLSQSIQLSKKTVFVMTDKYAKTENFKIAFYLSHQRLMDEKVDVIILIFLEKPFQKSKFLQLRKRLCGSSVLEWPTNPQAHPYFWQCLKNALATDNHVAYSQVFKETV
Method in brief: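 HEK293-Blue-hTLR7 cells (NF-κB/AP-1-driven SEAP reporter) incubated with serially diluted compound (1% DMSO final) and R848 agonist for 20 h at 37 °C. Supernatant SEAP measured with QUANTI-Blue (2 h, 37 °C) by absorbance at 620-655 nm; antagonism seen as reduced reporter.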

SMILES | CL (h) [1] | IC50 [2]
C[C@@H]1CN(c2ccc(C#N)c3ncccc23)C[C@@H]2c3ccc(NCCN4CC[C@H](O)C4)cc3CN12 [Example 68, 5-[(4R,10bS)-8-[2-[(3S)-3-hydroxypyrrolidin-1-yl]ethylamino]-4-methyl-3,4,6,10b-tetrahydro-1H-pyrazino[2,1-a]isoindol-2-yl]quinoline-8-carbonitrile] | 7.9 mL/min/kg | 3.3 nM
C[C@@H]1CN(c2ccc(Cl)c3ncccc23)C[C@@H]2c3ccc(N[C@H]4CNC[C@H]4F)cc3CN12 [Example 79, (4R,10b)-2-(8-chloro-5-quinolyl)-N-[(3S,4R)-4-fluoropyrrolidin-3-yl]-4-methyl-3,4,6,10b-tetrahydro-1H-pyrazino[2,1-a]isoindol-8-amine] | 6.2 mL/min/kg | 7.6 nM
C[C@@H]1CN(c2ccc(C#N)c3ncccc23)C[C@@H]2c3ccc(C(=O)N4CCC(C)(N)CC4)cc3CN12 [Example 88, 5-[(4R,10bS)-8-(4-amino-4-methyl-piperidine-1-carbonyl)-4-methyl-3,4,6,10b-tetrahydro-1H-pyrazino[2,1-a]isoindol-2-yl]quinoline-8-carbonitrile] | 6.2 mL/min/kg | 3.7 nM
C[C@@H]1CN(c2ccc(C#N)c3ncccc23)C[C@@H]2c3ccc(N[C@@H]4CCCNC4)cc3CN12 [Example 65, 5-[(4R,10bS)-4-methyl-8-[[(3R)-3-piperidyl]amino]-3,4,6,10b-tetrahydro-1H-pyrazino[2,1-a]isoindol-2-yl]quinoline-8-carbonitrile] | 6.2 mL/min/kg | 4.4 nM
CO[C@H]1CNC[C@H]1Nc1ccc2c(c1)CN1[C@H](C)CN(c3ccc(C#N)c4ncccc34)C[C@H]21 [Example 61, 5-[(4R,10bS)-8-[[(3R,4S)-4-methoxypyrrolidin-3-yl]amino]-4-methyl-3,4,6,10b-tetrahydro-1H-pyrazino[2,1-a]isoindol-2-yl]quinoline-8-carbonitrile] | 7.3 mL/min/kg | 5.7 nM
C[C@@H]1CN(c2ccc(C#N)c3ncccc23)C[C@@H]2c3cc(F)c(N4CC5CNCC(C4)O5)cc3CN12 [Example 85, 5-[(4R,10bS)-9-fluoro-4-methyl-8-(9-oxa-3,7-diazabicyclo[3.3.1]nonan-3-yl)-3,4,6,10b-tetrahydro-1H-pyrazino[2,1-a]isoindol-2-yl]quinoline-8-carbonitrile] | 7.8 mL/min/kg | 6.9 nM
C[C@@H]1CN(c2ccc(C#N)c3ncccc23)C[C@@H]2c3ccc(N4CCNCC4)cc3CN12 [Example 1, 5-[(4R,10bS)-4-methyl-8-piperazin-1-yl-3,4,6,10b-tetrahydro-1H-pyrazino[2,1-a]isoindol-2-yl]quinoline-8-carbonitrile] | 6.8 mL/min/kg | < 3.2 nM
C[C@@H]1CN(c2ccc(C#N)c3ncccc23)C[C@@H]2c3ccc(NCC4(F)CNC4)cc3CN12 [Example 69, 5-[(4R,10bS)-8-[(3-fluoroazetidin-3-yl)methylamino]-4-methyl-3,4,6,10b-tetrahydro-1H-pyrazino[2,1-a]isoindol-2-yl]quinoline-8-carbonitrile] | 8.4 mL/min/kg | 18.2 nM
C[C@H]1CN(c2ccc(C#N)c3ncccc23)C[C@H]2c3ccc(N4CCNCC4)cc3CN12 [Example 2, 5-[(4S,10bR)-4-methyl-8-piperazin-1-yl-3,4,6,10b-tetrahydro-1H-pyrazino[2,1-a]isoindol-2-yl]quinoline-8-carbonitrile] | 6.8 mL/min/kg | 71.5 nM
CO[C@@H]1CNC[C@@H]1Nc1ccc2c(c1)CN1[C@H](C)CN(c3ccc(C#N)c4ncccc34)C[C@H]21 [Example 60, 5-[(4R,10bS)-8-[[(3S,4R)-4-methoxypyrrolidin-3-yl]amino]-4-methyl-3,4,6,10b-tetrahydro-1H-pyrazino[2,1-a]isoindol-2-yl]quinoline-8-carbonitrile] | 7.4 mL/min/kg | 3.2 nM
Cc1ccc(N2C[C@@H](C)N3Cc4cc(N[C@H]5CNC[C@H]5F)ccc4[C@H]3C2)c2cccnc12 [Example 75, (4R,10bS)—N-[(3S,4R)-4-fluoropyrrolidin-3-yl]-4-methyl-2-(8-methyl-5-quinolyl)-3,4,6,10b-tetrahydro-1H-pyrazino[2,1-a]isoindol-8-amine] | 6.2 mL/min/kg | 47.8 nM
CO[C@H]1CNC[C@@H]1Nc1ccc2c(c1)CN1[C@H](C)CN(c3ccc(C#N)c4ncccc34)C[C@H]21 [Example 62, 5-[(4R,10bS)-8-[[(3S,4S)-4-methoxypyrrolidin-3-yl]amino]-4-methyl-3,4,6,10b-tetrahydro-1H-pyrazino[2,1-a]isoindol-2-yl]quinoline-8-carbonitrile] | 7.5 mL/min/kg | 5.9 nM

From patent US12157746B2, “Tetrahydro-1H-pyrazino[2,1-a]isoindolylquinoline compounds for the treatment of autoimmune disease” (F. HOFFMANN-LA ROCHE AG, priority 2018, dated 2024)
